Source: the NIST ThermoML archive (doi:10.1021/acs.jced.7b00494)

Assay: mn = molality of the nth substance listed, in mol/kg
Conditions: 99.6 kPa, Liquid; for kinematic viscosity: Capillary tube (Ostwald / Ubbelohde) method; for mass density: Vibrating tube method

CNC(C)=O [N-methylacetamide] + [Ca+2].[Cl-].[Cl-]
Conditions | kinematic viscosity, 308.15 K [m2/s] | kinematic viscosity, 313.15 K [m2/s] | kinematic viscosity, 318.15 K [m2/s] | kinematic viscosity, 323.15 K [m2/s] | kinematic viscosity, 328.15 K [m2/s] | mass density, 308.15 K [kg/m3] | mass density, 313.15 K [kg/m3] | mass density, 318.15 K [kg/m3] | mass density, 323.15 K [kg/m3] | mass density, 328.15 K [kg/m3]
m2 = 0 | 3.79e-06 | 3.35e-06 | 2.99e-06 | 2.68e-06 | 2.42e-06 | 945.85 | 941.63 | 937.44 | 933.24 | 929.07
m2 = 0.00398 | 3.81e-06 | 3.38e-06 | 3.02e-06 | 2.69e-06 | 2.44e-06 | 946.1 | 941.91 | 937.73 | 933.54 | 929.34
m2 = 0.01042 | 3.83e-06 | 3.41e-06 | 3.04e-06 | 2.72e-06 | 2.46e-06 | 946.61 | 942.38 | 938.2 | 933.97 | 929.79
m2 = 0.04232 | 4.04e-06 | 3.59e-06 | 3.19e-06 | 2.86e-06 | 2.58e-06 | 948.77 | 944.56 | 940.39 | 936.24 | 932.07
m2 = 0.05605 | 4.13e-06 | 3.67e-06 | 3.25e-06 | 2.92e-06 | 2.63e-06 | 949.67 | 945.49 | 941.34 | 937.18 | 933.03
m2 = 0.08536 | 4.34e-06 | 3.83e-06 | 3.4e-06 | 3.05e-06 | 2.74e-06 | 951.77 | 947.59 | 943.45 | 939.13 | 934.99
m2 = 0.1022 | 4.47e-06 | 3.95e-06 | 3.49e-06 | 3.13e-06 | 2.81e-06 | 953.01 | 948.87 | 944.7 | 940.52 | 936.21
m2 = 0.1314 | 4.7e-06 | 4.15e-06 | 3.67e-06 | 3.28e-06 | 2.95e-06 | 954.97 | 950.79 | 946.62 | 942.51 | 938.24
m2 = 0.1539 | 4.89e-06 | 4.31e-06 | 3.8e-06 | 3.39e-06 | 3.05e-06 | 956.57 | 952.41 | 948.18 | 943.99 | 939.85
m2 = 0.1613 | 4.95e-06 | 4.35e-06 | 3.85e-06 | 3.43e-06 | 3.09e-06 | 957.09 | 952.96 | 948.73 | 944.54 | 940.37
m2 = 0.1719 | 5.03e-06 | 4.42e-06 | 3.9e-06 | 3.48e-06 | 3.13e-06 | 957.84 | 953.69 | 949.44 | 945.4 | 941.17
m2 = 0.1998 | 5.26e-06 | 4.63e-06 | 4.08e-06 | 3.64e-06 | 3.27e-06 | 959.8 | 955.68 | 951.58 | 947.31 | 943.19
m2 = 0.2219 | 5.46e-06 | 4.8e-06 | 4.24e-06 | 3.77e-06 | 3.39e-06 | 961.27 | 957.26 | 953.04 | 948.77 | 944.71
m2 = 0.2578 | 5.79e-06 | 5.1e-06 | 4.5e-06 | 4e-06 | 3.58e-06 | 964 | 959.75 | 955.68 | 951.4 | 947.13
m2 = 0.3546 | 6.92e-06 | 6.01e-06 | 5.32e-06 | 4.71e-06 | 4.2e-06 | 970.82 | 966.61 | 962.4 | 958.22 | 953.99
